Test results reported in US8530489B2 (Vertex Pharmaceuticals Incorporated, priority 2006, dated 2013).

Target: PLK1 (Homo sapiens, UniProt P53350)
Assay: PLK1 Inhibition Assay I (radioactive-phosphate incorporation)
Format: biochemical
Settings: Ki(app); PLK1 Inhibition Assay I or II (table does not say which)
How it was run: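 Ki(app) values came from non-linear regression of initial rates after background subtraction, with phosphopeptide measured by phosphocellulose filter binding and scintillation counting. PLK1 at 2 nM was preincubated with compound (typically from 10 μM, 2-fold dilutions) for 10 min, then run 240 min at 25° C with 350 μM [γ-33P]ATP and 450 μM peptide substrate in HEPES pH 7.5 buffer.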

Chain of PLK1 (P53350 whole entry): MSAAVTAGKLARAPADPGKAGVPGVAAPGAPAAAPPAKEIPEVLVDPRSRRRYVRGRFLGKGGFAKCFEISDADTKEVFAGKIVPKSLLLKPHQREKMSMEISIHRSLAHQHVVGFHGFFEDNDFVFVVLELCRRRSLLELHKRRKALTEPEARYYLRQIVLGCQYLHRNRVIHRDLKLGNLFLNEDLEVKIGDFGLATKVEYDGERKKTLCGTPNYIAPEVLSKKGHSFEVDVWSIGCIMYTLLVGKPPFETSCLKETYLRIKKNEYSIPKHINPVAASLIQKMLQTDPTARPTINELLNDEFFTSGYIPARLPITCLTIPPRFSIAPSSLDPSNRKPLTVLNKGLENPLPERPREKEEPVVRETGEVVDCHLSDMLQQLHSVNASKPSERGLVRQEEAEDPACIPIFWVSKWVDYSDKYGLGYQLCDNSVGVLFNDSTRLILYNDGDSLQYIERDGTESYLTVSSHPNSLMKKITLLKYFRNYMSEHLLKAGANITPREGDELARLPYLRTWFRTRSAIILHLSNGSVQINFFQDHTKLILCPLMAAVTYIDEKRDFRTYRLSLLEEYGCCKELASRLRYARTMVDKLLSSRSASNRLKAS

Ki [nM] | SMILES
< 3 | CC[C@@H](N)C(=O)N1CCC([C@@H](C)Nc2ncc(C#N)c(-c3c[nH]c4ncc(C(F)(F)F)cc34)n2)CC1 [Compound I-226, 2-((R)-1-(1-((R)-2-aminobutanoyl)piperidin-4-yl)ethylamino)-4-(5-(trifluoromethyl)-1H-pyrrolo[2,3-b]pyridin-3-yl)pyrimidine-5-carbonitrile]
> 40 | N#Cc1cnc(Oc2ccccc2)nc1-c1c[nH]c2ncc(C(F)(F)F)cc12 [EG4, 2-Phenoxy-4-(5-(trifluoromethyl)-1H-pyrrolo[2,3-b]pyridin-3-yl)pyrimidine-5-carbonitrile]
< 3 | C[C@@H](Nc1ncc(C#N)c(-c2c[nH]c3ncc(C(F)(F)F)cc23)n1)C1CCN(C(=O)[C@H](N)CC#N)CC1 [Compound I-251, 2-((R)-1-(1-((R)-2-amino-3-cyanopropanoyl)piperidin-4-yl)ethylamino)-4-(5-(trifluoromethyl)-1H-pyrrolo[2,3-b]pyridin-3-yl)pyrimidine-5-carbonitrile]
3 to 40 | CC(Nc1ncc(C#N)c(-c2c[nH]c3ncc(C(F)(F)F)cc23)n1)C1CN(C(=O)C(C)(C)O)C1 (stereo not shown) [Compound I-221, 2-(1-(1-(2-hydroxy-2-methylpropanoyl)azetidin-3-yl)ethylamino)-4-(5-(trifluoromethyl)-1H-pyrrolo[2,3-b]pyridin-3-yl)pyrimidine-5-carbonitrile]
< 3 | CC[C@@H](O)C(=O)N1CCC([C@@H](C)Nc2ncc(C#N)c(-c3c[nH]c4ncc(C(F)(F)F)cc34)n2)CC1 [Compound I-219, 2-((R)-1-(1-((R)-2-hydroxybutanoyl)piperidin-4-yl)ethylamino)-4-(5-(trifluoromethyl)-1H-pyrrolo[2,3-b]pyridin-3-yl)pyrimidine-5-carbonitrile]
3 to 40 | N#Cc1cnc(Sc2ccccc2)nc1-c1c[nH]c2ncc(C(F)(F)F)cc12 [II-0, 2-(phenylthio)-4-(5-(trifluoromethyl)-1H-pyrrolo[2,3-b]pyridin-3-yl)pyrimidine-5-carbonitrile]
< 3 | CCN(CCN(C)C)c1ccc([C@@H](C)Nc2ncc(C#N)c(-c3c[nH]c4ncc(C(F)(F)F)cc34)n2)cn1 [Compound I-296, 2-((R)-1-(6-((2-(dimethylamino)ethyl)(ethyl)amino)pyridin-3-yl)ethylamino)-4-(5-(trifluoromethyl)-1H-pyrrolo[2,3-b]pyridin-3-yl)pyrimidine-5-carbonitrile]
< 3 | CNCCCN(C)c1ccc([C@@H](C)Nc2ncc(C#N)c(-c3c[nH]c4ncc(C(F)(F)F)cc34)n2)cn1 [Compound I-289, 2-((R)-1-(6-(methyl(3-(methylamino)propyl)amino)pyridin-3-yl)ethylamino)-4-(5-(trifluoromethyl)-1H-pyrrolo[2,3-b]pyridin-3-yl)pyrimidine-5-carbonitrile]
> 40 | C#CCNc1ncc(C#N)c(-c2c[nH]c3ncc(C(F)(F)F)cc23)n1 [Compound I-79, 2-(prop-2-ynylamino)-4-(5-(trifluoromethyl)-1H-pyrrolo[2,3-b]pyridin-3-yl)pyrimidine-5-carbonitrile]
> 40 | N#Cc1cnc(NCc2ccccc2F)nc1-c1c[nH]c2ncc(C(F)(F)F)cc12 [Compound I-21, 2-(2-fluorobenzylamino)-4-(5-(trifluoromethyl)-1H-pyrrolo[2,3-b]pyridin-3-yl)pyrimidine-5-carbonitrile]
3 to 40 | C[C@@H](Nc1ncc(C#N)c(-c2c[nH]c3ncc(C(F)(F)F)cc23)n1)c1ccc(N2CC[C@@H](N(C)C)C2)nc1 [Compound I-286, 2-((R)-1-(6-((R)-3-(dimethylamino)pyrrolidin-1-yl)pyridin-3-yl)ethylamino)-4-(5-(trifluoromethyl)-1H-pyrrolo[2,3-b]pyridin-3-yl)pyrimidine-5-carbonitrile]
3 to 40 | N#Cc1cnc(NC(CO)c2ccccc2)nc1-c1c[nH]c2ncc(C(F)(F)F)cc12 (stereo not shown) [Compound I-75, 2-(2-hydroxy-1-phenylethylamino)-4-(5-(trifluoromethyl)-1H-pyrrolo[2,3-b]pyridin-3-yl)pyrimidine-5-carbonitrile]
3 to 40 | C[C@@H](Nc1ncc(C#N)c(-c2c[nH]c3ncc(C(F)(F)F)cc23)n1)c1ccc(N2CC[C@H](N(C)C)C2)nc1 [Compound I-290, 2-((R)-1-(6-((S)-3-(dimethylamino)pyrrolidin-1-yl)pyridin-3-yl)ethylamino)-4-(5-(trifluoromethyl)-1H-pyrrolo[2,3-b]pyridin-3-yl)pyrimidine-5-carbonitrile]
< 3 | CC(Nc1ncc(C#N)c(-c2c[nH]c3ncc(C(F)(F)F)cc23)n1)C1CCN(C(=O)CN)CC1 (stereo not shown) [Compound I-188, 2-(1-(1-(2-aminoacetyl)piperidin-4-yl)ethylamino)-4-(5-(trifluoromethyl)-1H-pyrrolo[2,3-b]pyridin-3-yl)pyrimidine-5-carbonitrile]
3 to 40 | CC(C)C[C@@H](N)C(=O)N1CCC([C@@H](C)Nc2ncc(C#N)c(-c3c[nH]c4ncc(C(F)(F)F)cc34)n2)CC1 [Compound I-241, 2-((R)-1-(1-((R)-2-amino-4-methylpentanoyl)piperidin-4-yl)ethylamino)-4-(5-(trifluoromethyl)-1H-pyrrolo[2,3-b]pyridin-3-yl)pyrimidine-5-carbonitrile]
< 3 | C[C@@H](Nc1ncc(C#N)c(-c2c[nH]c3ncc(C(F)(F)F)cc23)n1)C1CCN(C(=O)C(C)(C)O)CC1 [Compound I-206, 2-((R)-1-(1-(2-hydroxy-2-methylpropanoyl)piperidin-4-yl)ethylamino)-4-(5-(trifluoromethyl)-1H-pyrrolo[2,3-b]pyridin-3-yl)pyrimidine-5-carbonitrile]
3 to 40 | CC(C)(Nc1ncc(C#N)c(-c2c[nH]c3ncc(C(F)(F)F)cc23)n1)c1ccccc1 [Compound I-9, 2-(2-phenylpropan-2-ylamino)-4-(5-(trifluoromethyl)-1H-pyrrolo[2,3-b]pyridin-3-yl)pyrimidine-5-carbonitrile]
3 to 40 | CC(C)(Nc1ncc(C#N)c(-c2c[nH]c3ncc(C(F)(F)F)cc23)n1)C(=O)NCC(F)(F)F [IA-0, 2-(5-cyano-4-(5-(trifluoromethyl)-1H-pyrrolo[2,3-b]pyridin-3-yl)pyrimidin-2-ylamino)-2-methyl-N-(2,2,2-trifluoroethyl)propanamide]
< 3 | C[C@@H](Nc1ncc(C#N)c(-c2c[nH]c3ncc(C(F)(F)F)cc23)n1)C1CCN(C(=O)[C@@H](N)CO)CC1 [Compound I-239, 2-((R)-1-(1-((S)-2-amino-3-hydroxypropanoyl)piperidin-4-yl)ethylamino)-4-(5-(trifluoromethyl)-1H-pyrrolo[2,3-b]pyridin-3-yl)pyrimidine-5-carbonitrile]
3 to 40 | C[C@@H](Nc1ncc(C#N)c(-c2c[nH]c3ncc(C(F)(F)F)cc23)n1)c1cccc(C(F)(F)F)c1 [Compound I-45, 4-(5-(trifluoromethyl)-1H-pyrrolo[2,3-b]pyridin-3-yl)-2-((R)-1-(3-(trifluoromethyl)phenyl)ethylamino)pyrimidine-5-carbonitrile]
< 3 | CC(C)N1CCN(c2ccc([C@@H](C)Nc3ncc(C#N)c(-c4c[nH]c5ncc(C(F)(F)F)cc45)n3)cn2)CC1 [Compound I-284, 2-((R)-1-(6-(4-isopropylpiperazin-1-yl)pyridin-3-yl)ethylamino)-4-(5-(trifluoromethyl)-1H-pyrrolo[2,3-b]pyridin-3-yl)pyrimidine-5-carbonitrile]
< 3 | C[C@@H](Nc1ncc(C#N)c(-c2c[nH]c3ncc(C(F)(F)F)cc23)n1)C1CCN(C(=O)CCO)CC1 [Compound I-216, 2-((R)-1-(1-(3-hydroxypropanoyl)piperidin-4-yl)ethylamino)-4-(5-(trifluoromethyl)-1H-pyrrolo[2,3-b]pyridin-3-yl)pyrimidine-5-carbonitrile]
3 to 40 | Cc1cnc2[nH]cc(-c3nc(N[C@@H](CO)C(C)C)ncc3C#N)c2c1 [EG8, 2-((R)-1-hydroxy-3-methylbutan-2-ylamino)-4-(5-methyl-1H-pyrrolo[2,3-b]pyridin-3-yl)pyrimidine-5-carbonitrile]
3 to 40 | CCC1(O)CCN(c2ccc(C(C)Nc3ncc(C#N)c(-c4c[nH]c5ncc(C(F)(F)F)cc45)n3)cn2)CC1 (stereo not shown) [Compound I-197, 2-(1-(6-(4-ethyl-4-hydroxypiperidin-1-yl)pyridin-3-yl)ethylamino)-4-(5-(trifluoromethyl)-1H-pyrrolo[2,3-b]pyridin-3-yl)pyrimidine-5-carbonitrile]
< 3 | C[C@@H](Nc1ncc(C#N)c(-c2c[nH]c3ncc(C(F)(F)F)cc23)n1)c1ccc(CO)cc1 [Compound I-185, 2-((R)-1-(4-(hydroxymethyl)phenyl)ethylamino)-4-(5-(trifluoromethyl)-1H-pyrrolo[2,3-b]pyridin-3-yl)pyrimidine-5-carbonitrile]
3 to 40 | CC(Nc1ncc(C#N)c(-c2c[nH]c3ncc(C(F)(F)F)cc23)n1)c1ccc(N2CC(F)(C3CC3)C2)nc1 (stereo not shown) [Compound I-191, 2-(1-(6-(3-cyclopropyl-3-fluoroazetidin-1-yl)pyridin-3-yl)ethylamino)-4-(5-(trifluoromethyl)-1H-pyrrolo[2,3-b]pyridin-3-yl)pyrimidine-5-carbonitrile]
< 3 | C[C@@H](Nc1ncc(C#N)c(-c2c[nH]c3ncc(C(F)(F)F)cc23)n1)c1ccc(O[C@@H]2CCN(C)C2)nc1 [Compound I-300, 2-(I-1-(6-(I-1-methylpyrrolidin-3-yloxy)pyridin-3-yl)ethylamino)-4-(5-(trifluoromethyl)-1H-pyrrolo[2,3-b]pyridin-3-yl)pyrimidine-5-carbonitrile]
3 to 40 | N#Cc1cnc(N[C@@H]2CC[C@H](CO)C2)nc1-c1c[nH]c2ncc(C(F)(F)F)cc12 [Compound I-119, 2-((1R,3S)-3-(hydroxymethyl)cyclopentylamino)-4-(5-(trifluoromethyl)-1H-pyrrolo[2,3-b]pyridin-3-yl)pyrimidine-5-carbonitrile]
